Data from patent US20040102469A1, “Method for reducing the mortality rate” (Boehringer Ingelheim Pharma GmbH & Co. KG, priority 2002, published 2004).

Key:
[1] = five-year study; cited from earlier work
[2] = system: people with lung diseases, especially COPD; experiment: mortality from respiratory disease in people with lung diseases regularly self-administering tiotropium through the HANDIHALER inhalation device; format: in vivo; conditions: regular self-administration by inhalation via HANDIHALER; compared with a population with similar characteristics not treated with tiotropium
Description: This is evidence by the number of people with lung diseases, especially COPD, who die from respiratory disease in a given prolonged period of time when regularly self-administering tiotropium through the HANDIHALER® inhalation device; the comparison being a population with similar characteristics not treated with tiotropium.

CC(C)[N+]1(C)[C@@H]2CC[C@H]1CC(OC(=O)C(CO)c1ccccc1)C2.[Br-] (some centres unmarked) [ipratropium bromide]
influence on mortality [1]: did not show any influence on mortality

C[N+]1(C)C2C[C@H](OC(=O)C(O)(c3cccs3)c3cccs3)CC1[C@H]1OC21 (stereo partly drawn) [tiotropium, (1α,2β,4β,5α,7β)-7-[(hydroxydi-2-thienylacetyl)oxy]-9,9-dimethyl-3-oxa-9-azoniatricyclo[3.3.1.0^2,4]nonane bromide]
reduction of the mortality rate (number of people who die from respiratory disease in a given prolonged period of time) [2]: suitable in the reduction of the mortality rate
